Experimental data published in patent US20040166058A1, “Ethylenedicysteine (EC)-drug conjugates, compositions and methods for tissue specific disease imaging” (Board of Regents, The University of Texas System, priority 2002, published 2004).
Ends that are not written are not given here.

Experiments:
[1] = test system: RBA CRL-1747 (breast cancer cells); assay: In vitro cellular uptake in breast cancer cells; type: cell-based; settings: 0.5-2 hrs, 50,000 cells/well
Excerpt: There was more uptake in ^99mTc-EC-carnitine than ^99mTc-EC (FIG. 16).

[2] = test system: RBA CRL-1747 mammary tumor; assay: Biodistribution in mammary (breast) tumor-bearing rats; type: in vivo; settings: iv
Experimental: (§1) Biodistribution was assessed in mammary tumor-bearing rats (RBA CRL-1747, n=3/time interval, iv). Studies were performed 14 to 17 days after implantation when tumors reached approximately 1 cm in diameter. Following administration of the radiotracer, rats were sacrificed at 0.5-4 hrs. The selected tissues were excised, weighed and counted for radioactivity by using a gamma counter (Packard Instruments, Downers Grove, Ill.). The biodistribution of tracer in each sample was calculated as percentage of the injected dose per gram of tissue wet weight (% ID/g).
as §1, with “breast” for “mammary”

[3] = test system: RBA CRL-1747 breast cancer cells; assay: In vitro blocking study of ^99mTc-EC-angiostatin uptake with unlabeled angiostatin; type: cell-based; settings: unlabeled angiostatin 0-200 μM, 0.5-2 hrs, R^2=0.998; read-out: IC-50 of angiostatin (inhibition of ^99mTc-EC-angiostatin uptake)
Experimental: The IC-50 of angiostatin was 176 μM (R^2=0.998) (FIG. 3).

[4] = test system: human ovarian cancer cells; settings: 4-6 μCi/50,000 cells/well, 0.5-2 hrs
[5] = Cell culture uptake of Re-188 versus Tc-99m labeled EC-agents; type: cell-based
Experimental: To develop EC-DG in a kit form, EC-DG (10 mg) dissolved in 0.2 ml of water was freeze dried with tin chloride (2 mg in 0.2 ml of water) and gluconate (3 mg) in a 10 ml medi-vial and stored at room temperature prior to labeling. During labeling, the freeze dried powder was reconstituted in saline (0.5 ml) and pertechnate (10 mCi) was added. The kit was heated at 55° C. for 30 min (or 75° C. for 15 min). Radiochemical purity of ^99mTc-EC-DG was greater than 95% as determined by radio-TLC (saline, Rf: 0.8)(FIG. 39). A similar method could be applied to other EC-agents such as EC-metronidazole (EC-MN)(FIG. 40) and EC-penciclovir (also known as EC-Guan).

mammary tumor = assay: Scintigraphic imaging in mammary (breast) tumor-bearing rats; type: in vivo; settings: 0.1-4 hrs, 0.1 mCi/rat, iv
Experimental: Scintigraphic imaging studies was performed in mammary tumor-bearing rats at 0.5-4 hrs (0.3 mCi/rat, n=3, iv). Control group was administered ^99mTc-EC. Computer-outlined region of interest was used to determine tumor uptake (counts/pixel) and tumor/nontumor count density ratios.
Scintigraphic imaging studies was performed in mammary tumor-bearing rats at 0.5-4 hrs (0.3 mCi/rat, n=3, iv). Control group was administered ^99mTc-EC.
Scintigraphic imaging studies was performed in mammary tumor-bearing rats at 0.5-4 hrs (0.1 mCi/rat, n=3, iv). Control group was administered ^99mTc-EC.
Scintigraphic imaging studies was performed in breast tumor-bearing rats at 0.5-4 hrs (0.1 mCi/rat, n=3, iv). Control group was administered ^99mTc-EC.
Scintigraphic imaging studies was performed in breast tumor-bearing rats at 0.1-4 hrs (0.1 mCi/rat, n=3, iv). Control group was administered ^99mTc-EC.

[6] = test system: human ovarian and uterine cancer cells; assay: In vitro cellular uptake in human ovarian and uterine cancer cells; type: cell-based; settings: 4-6 μCi/50,000 cells/well, 0.5-2 hrs
Experimental: An in vitro cell culture using tumor cells was incubated with ^99mTc-EC-penciclovir (4-6 μCi/50,000 cells/well) at 0.5-2 hrs in human ovarian and uterine cancer cells.

[7] = test system: human prostate cancer cells (LNCap, PC-3); assay: In vitro cellular uptake in human prostate cancer cells; type: cell-based; settings: 4-6 μCi/100,000 cells/well, 0.5-2 hrs, LNCap and PC-3
Experimental: An in vitro cell culture using tumor cells was incubated with ^99mTc-EC-LHRH (4-6 μCi/100,000 cells/well) at 0.5-2 hrs in human prostate cancer cells. Two types cell lines were used. They are either sensitive to androgen (LNCap) or unresponsive to androgen (PC-3) therapy.

Compound: Cc1ccc(-c2cc(C(F)(F)F)nn2-c2ccc(S(=O)(=O)NC(=O)NCC(=O)NCCNC(=O)C3C[S][99Tc]45(=[O])[S]CC(C(=O)O)[N]4CC[N]35)cc2)cc1 (stereo not drawn) [^99mTc-EC-COX-2]
- cellular uptake compared to ^99mTc-EC [1]: significant increase in uptake
- tumor-to-tissue count density ratios compared to ^99mTc-EC ([2]; 0.5-4 hrs): increased tumor-to-tissue count density ratios as a function of time
- BONE/MUSCLE ([2]; 30 min): 2.419 ± 0.225
- Biodistribution BONE & JOINT ([2]; 30 min): 0.324 ± 0.036 % of injected dose per gram of tissue weight
- Biodistribution Blood ([2]; 30 min): 2.293 ± 0.038 % of injected dose per gram of tissue weight
- Biodistribution Heart ([2]; 30 min): 0.475 ± 0.025 % of injected dose per gram of tissue weight
- Biodistribution Intestine ([2]; 30 min): 0.406 ± 0.039 % of injected dose per gram of tissue weight
- Biodistribution Kidney ([2]; 30 min): 4.963 ± 0.147 % of injected dose per gram of tissue weight
- Biodistribution Liver ([2]; 30 min): 1.556 ± 0.046 % of injected dose per gram of tissue weight
- Biodistribution Lung ([2]; 30 min): 1.033 ± 0.035 % of injected dose per gram of tissue weight
- Biodistribution Muscle ([2]; 30 min): 0.133 ± 0.007 % of injected dose per gram of tissue weight
- Biodistribution Spleen ([2]; 30 min): 0.594 ± 0.298 % of injected dose per gram of tissue weight
- Biodistribution Stomach ([2]; 30 min): 0.370 ± 0.010 % of injected dose per gram of tissue weight
- Biodistribution Thyroid ([2]; 30 min): 0.784 ± 0.090 % of injected dose per gram of tissue weight
- Biodistribution Tumor ([2]; 30 min): 0.587 ± 0.062 % of injected dose per gram of tissue weight
- Biodistribution UTERUS ([2]; 30 min): 0.595 ± 0.003 % of injected dose per gram of tissue weight
- Tumor/Blood ([2]; 30 min): 0.255 ± 0.022
- Tumor/Muscle ([2]; 30 min): 4.375 ± 0.304
- UTERUS/BLOOD ([2]; 30 min): 0.259 ± 0.003
- UTERUS/MUSCLE ([2]; 30 min): 4.471 ± 0.257
- BONE/MUSCLE ([2]; 2 h): 3.058 ± 0.114
- Biodistribution BONE & JOINT ([2]; 2 h): 0.190 ± 0.003 % of injected dose per gram of tissue weight
- Biodistribution Blood ([2]; 2 h): 1.388 ± 0.063 % of injected dose per gram of tissue weight
- Biodistribution Heart ([2]; 2 h): 0.283 ± 0.017 % of injected dose per gram of tissue weight
- Biodistribution Intestine ([2]; 2 h): 0.276 ± 0.061 % of injected dose per gram of tissue weight
- Biodistribution Kidney ([2]; 2 h): 6.088 ± 0.305 % of injected dose per gram of tissue weight
- Biodistribution Liver ([2]; 2 h): 1.461 ± 0.049 % of injected dose per gram of tissue weight
- Biodistribution Lung ([2]; 2 h): 0.712 ± 0.098 % of injected dose per gram of tissue weight
- Biodistribution Muscle ([2]; 2 h): 0.062 ± 0.003 % of injected dose per gram of tissue weight
- Biodistribution Spleen ([2]; 2 h): 0.965 ± 0.056 % of injected dose per gram of tissue weight
- Biodistribution Stomach ([2]; 2 h): 0.187 ± 0.004 % of injected dose per gram of tissue weight
- Biodistribution Thyroid ([2]; 2 h): 0.449 ± 0.015 % of injected dose per gram of tissue weight
- Biodistribution Tumor ([2]; 2 h): 0.424 ± 0.019 % of injected dose per gram of tissue weight
- Biodistribution UTERUS ([2]; 2 h): 0.334 ± 0.034 % of injected dose per gram of tissue weight
- Tumor/Blood ([2]; 2 h): 0.307 ± 0.018
- Tumor/Muscle ([2]; 2 h): 6.876 ± 0.704
- UTERUS/BLOOD ([2]; 2 h): 0.240 ± 0.021
- UTERUS/MUSCLE ([2]; 2 h): 5.442 ± 0.852
- BONE/MUSCLE ([2]; 4 h): 4.314 ± 0.739
- Biodistribution BONE & JOINT ([2]; 4 h): 0.178 ± 0.022 % of injected dose per gram of tissue weight
- Biodistribution Blood ([2]; 4 h): 1.031 ± 0.033 % of injected dose per gram of tissue weight
- Biodistribution Heart ([2]; 4 h): 0.224 ± 0.004 % of injected dose per gram of tissue weight
- Biodistribution Intestine ([2]; 4 h): 0.190 ± 0.006 % of injected dose per gram of tissue weight
- Biodistribution Kidney ([2]; 4 h): 6.363 ± 0.260 % of injected dose per gram of tissue weight
- Biodistribution Liver ([2]; 4 h): 1.506 ± 0.080 % of injected dose per gram of tissue weight
- Biodistribution Lung ([2]; 4 h): 0.500 ± 0.011 % of injected dose per gram of tissue weight
- Biodistribution Muscle ([2]; 4 h): 0.002 ± 0.004 % of injected dose per gram of tissue weight
- Biodistribution Spleen ([2]; 4 h): 0.981 ± 0.041 % of injected dose per gram of tissue weight
- Biodistribution Stomach ([2]; 4 h): 0.139 ± 0.004 % of injected dose per gram of tissue weight
- Biodistribution Thyroid ([2]; 4 h): 0.372 ± 0.021 % of injected dose per gram of tissue weight
- Biodistribution Tumor ([2]; 4 h): 0.406 ± 0.004 % of injected dose per gram of tissue weight
- Biodistribution UTERUS ([2]; 4 h): 0.263 ± 0.005 % of injected dose per gram of tissue weight
- Tumor/Blood ([2]; 4 h): 0.395 ± 0.014
- Tumor/Muscle ([2]; 4 h): 9.715 ± 0.387
- UTERUS/BLOOD ([2]; 4 h): 0.255 ± 0.005
- UTERUS/MUSCLE ([2]; 4 h): 6.278 ± 0.199

Compound: angiostatin
- IC50 [3]: 176 µM

Compound: CN(C)c1ncnc2c1ncn2C1OC(CO)C(NC(=O)C2C[S][99Tc]34(=[O])[S]CC(C(=O)O)[N]3CC[N]24)C1O (stereo not drawn) [^99mTc-EC-adenosine]
- cellular uptake compared to ^99mTc-EC [4]: significant increased uptake

Compound: Nc1nc2c(ncn2CCC(CO)CNC(=O)[C@H](CS)NCCN[C@@H](CS)C(=O)NCC(CO)CCn2cnc3c(=O)[nH]c(N)nc32)c(=O)[nH]1 (stereo partly drawn) [EC-Guan]
- uptakes of Re-188 versus Tc-99m labeled agent [5]: no marked difference between uptakes

Compound: C[N+](C)(C)CCCCC(NC(=O)C1C[S][99Tc]23(=[O])[S]CC(C(=O)NC(CCCC[N+](C)(C)C)C(=O)[O-])[N]2CC[N]13)C(=O)[O-] (stereo not drawn) [^99mTc-EC-carnitine]
- cellular uptake compared to ^99mTc-EC [1]: more uptake
- count density ratios tumor/muscle and heart/muscle (mammary tumor): High count density ratios

Compound: Nc1nc2c(ncn2CCC(CO)CNC(=O)C2C[S][99Tc]34(=[O])[S]CC(C(=O)NCC(CO)CCn5cnc6c(=O)[nH]c(N)nc65)[N]3CC[N]24)c(=O)[nH]1 (stereo not drawn) [^99mTc-EC-penciclovir]
- cellular uptake compared to ^99mTc-EC [6]: significant increased uptake

Compound: ^99mTc-EC-LHRH (QHWSYGLRPG; also: 99mTc-ethylenedicysteine (EC) label, attachment site not given here; UniProt P01148 24-33, looked up)
- cellular uptake compared to ^99mTc-EC [7]: significant increased uptake
